Seven compounds from PMC9562281 can be followed below.

This series is described as follows: On-resin ring-closing metathesis (C=C) of bis-alkenyl beta-(1,6)-hexaglucosides, Grubbs catalyst 20 mol% per cycle, Ar bubbling. Method B (8a-8d): Grubbs II, MW 60 C, 40 min per cycle, 6 cycles for 8a and 3 for 8b-8d. Method A (8e-8g): Grubbs I, 25 C, 60 min per cycle, 3 cycles. The note with it: the molecule shown is the open-chain precursor, 16 steps.

Regarding `C=CCCCO[C@@H]1[C@@H](OC(=O)c2ccccc2)[C@H](OC[C@H]2O[C@@H](OC[C@H]3O[C@@H](OC[C@H]4O[C@@H](OC[C@H]5O[C@@H](OC[C@H]6O[C@@H](OCCCCCN(Cc7ccc(OC)cc7[N+](=O)[O-])C(=O)OCc7ccccc7)[C@H](OC(=O)c7ccccc7)[C@@H](OC(=O)c7ccccc7)[C@@H]6OCc6ccccc6)[C@H](OC(=O)c6ccccc6)[C@@H](OCc6ccccc6)[C@@H]5OCC=C)[C@H](OC(=O)c5ccccc5)[C@@H](OC(=O)c5ccccc5)[C@@H]4OCc4ccccc4)[C@H](OC(=O)c4ccccc4)[C@@H](OC(=O)c4ccccc4)[C@@H]3OCc3ccccc3)[C@H](OC(=O)c3ccccc3)[C@@H](OC(=O)c3ccccc3)[C@@H]2OCc2ccccc2)O[C@H](CO)[C@H]1OCc1ccccc1` [8c (from 5c, -(CH2)6-)], under “30-membered ring, 1,2-dichloroethane, 2.0 h”, the ring closure, overall yield was found to be 15%.

Regarding `C=CCCCCO[C@@H]1[C@@H](OC(=O)c2ccccc2)[C@H](OC[C@H]2O[C@@H](OC[C@H]3O[C@@H](OC[C@H]4O[C@@H](OC[C@H]5O[C@@H](OC[C@H]6O[C@@H](OCCCCCN(Cc7ccc(OC)cc7[N+](=O)[O-])C(=O)OCc7ccccc7)[C@H](OC(=O)c7ccccc7)[C@@H](OC(=O)c7ccccc7)[C@@H]6OCc6ccccc6)[C@H](OC(=O)c6ccccc6)[C@@H](OCc6ccccc6)[C@@H]5OCCCCC=C)[C@H](OC(=O)c5ccccc5)[C@@H](OC(=O)c5ccccc5)[C@@H]4OCc4ccccc4)[C@H](OC(=O)c4ccccc4)[C@@H](OC(=O)c4ccccc4)[C@@H]3OCc3ccccc3)[C@H](OC(=O)c3ccccc3)[C@@H](OC(=O)c3ccccc3)[C@@H]2OCc2ccccc2)O[C@H](CO)[C@H]1OCc1ccccc1` [8g (from 5g, -(CH2)10-)], where the note is “34-membered ring, 1,2-dichloroethane, 3.0 h”, the ring closure, overall yield was 17%.

Consider `C=CCCCCO[C@H]1[C@H](OCc2ccccc2)[C@@H](OC(=O)c2ccccc2)[C@H](OC[C@H]2O[C@@H](OCCCCCN(Cc3ccc(OC)cc3[N+](=O)[O-])C(=O)OCc3ccccc3)[C@H](OC(=O)c3ccccc3)[C@@H](OC(=O)c3ccccc3)[C@@H]2OCc2ccccc2)O[C@@H]1CO[C@@H]1O[C@H](CO[C@@H]2O[C@H](CO[C@@H]3O[C@H](CO[C@@H]4O[C@H](CO)[C@@H](OCc5ccccc5)[C@H](OCCCC=C)[C@H]4OC(=O)c4ccccc4)[C@@H](OCc4ccccc4)[C@H](OC(=O)c4ccccc4)[C@H]3OC(=O)c3ccccc3)[C@@H](OCc3ccccc3)[C@H](OC(=O)c3ccccc3)[C@H]2OC(=O)c2ccccc2)[C@@H](OCc2ccccc2)[C@H](OC(=O)c2ccccc2)[C@H]1OC(=O)c1ccccc1` [8f (from 5f, -(CH2)9-)], for which, where the note is “33-membered ring, 1,2-dichloroethane, 3.0 h”, the ring closure, overall yield was found to be 14%.

In the case of `C=CCCCCO[C@H]1[C@H](OCc2ccccc2)[C@@H](OC(=O)c2ccccc2)[C@H](OC[C@H]2O[C@@H](OCCCCCN(Cc3ccc(OC)cc3[N+](=O)[O-])C(=O)OCc3ccccc3)[C@H](OC(=O)c3ccccc3)[C@@H](OC(=O)c3ccccc3)[C@@H]2OCc2ccccc2)O[C@@H]1CO[C@@H]1O[C@H](CO[C@@H]2O[C@H](CO[C@@H]3O[C@H](CO[C@@H]4O[C@H](CO)[C@@H](OCc5ccccc5)[C@H](OCCC=C)[C@H]4OC(=O)c4ccccc4)[C@@H](OCc4ccccc4)[C@H](OC(=O)c4ccccc4)[C@H]3OC(=O)c3ccccc3)[C@@H](OCc3ccccc3)[C@H](OC(=O)c3ccccc3)[C@H]2OC(=O)c2ccccc2)[C@@H](OCc2ccccc2)[C@H](OC(=O)c2ccccc2)[C@H]1OC(=O)c1ccccc1` [8e (from 5e, -(CH2)8-)], under “32-membered ring, 1,2-dichloroethane, 3.0 h”, the ring closure, overall yield stood at 15%.

`C=CCO[C@@H]1[C@@H](OC(=O)c2ccccc2)[C@H](OC[C@H]2O[C@@H](OC[C@H]3O[C@@H](OC[C@H]4O[C@@H](OC[C@H]5O[C@@H](OC[C@H]6O[C@@H](OCCCCCN(Cc7ccc(OC)cc7[N+](=O)[O-])C(=O)OCc7ccccc7)[C@H](OC(=O)c7ccccc7)[C@@H](OC(=O)c7ccccc7)[C@@H]6OCc6ccccc6)[C@H](OC(=O)c6ccccc6)[C@@H](OCc6ccccc6)[C@@H]5OCC=C)[C@H](OC(=O)c5ccccc5)[C@@H](OC(=O)c5ccccc5)[C@@H]4OCc4ccccc4)[C@H](OC(=O)c4ccccc4)[C@@H](OC(=O)c4ccccc4)[C@@H]3OCc3ccccc3)[C@H](OC(=O)c3ccccc3)[C@@H](OC(=O)c3ccccc3)[C@@H]2OCc2ccccc2)O[C@H](CO)[C@H]1OCc1ccccc1` [8a (from 5a, -(CH2)4-)] registered a ring closure, overall yield (28-membered ring, 1,2-dichloroethane, 4.0 h) of 12%.

In the case of `C=CCCCCO[C@@H]1[C@@H](OC(=O)c2ccccc2)[C@H](OC[C@H]2O[C@@H](OC[C@H]3O[C@@H](OC[C@H]4O[C@@H](OC[C@H]5O[C@@H](OC[C@H]6O[C@@H](OCCCCCN(Cc7ccc(OC)cc7[N+](=O)[O-])C(=O)OCc7ccccc7)[C@H](OC(=O)c7ccccc7)[C@@H](OC(=O)c7ccccc7)[C@@H]6OCc6ccccc6)[C@H](OC(=O)c6ccccc6)[C@@H](OCc6ccccc6)[C@@H]5OCC=C)[C@H](OC(=O)c5ccccc5)[C@@H](OC(=O)c5ccccc5)[C@@H]4OCc4ccccc4)[C@H](OC(=O)c4ccccc4)[C@@H](OC(=O)c4ccccc4)[C@@H]3OCc3ccccc3)[C@H](OC(=O)c3ccccc3)[C@@H](OC(=O)c3ccccc3)[C@@H]2OCc2ccccc2)O[C@H](CO)[C@H]1OCc1ccccc1` [8d (from 5d, -(CH2)7-)], the ring closure, overall yield (31-membered ring, 1,2-dichloroethane, 2.0 h) came out at 13%.

Take `C=CCCO[C@@H]1[C@@H](OC(=O)c2ccccc2)[C@H](OC[C@H]2O[C@@H](OC[C@H]3O[C@@H](OC[C@H]4O[C@@H](OC[C@H]5O[C@@H](OC[C@H]6O[C@@H](OCCCCCN(Cc7ccc(OC)cc7[N+](=O)[O-])C(=O)OCc7ccccc7)[C@H](OC(=O)c7ccccc7)[C@@H](OC(=O)c7ccccc7)[C@@H]6OCc6ccccc6)[C@H](OC(=O)c6ccccc6)[C@@H](OCc6ccccc6)[C@@H]5OCC=C)[C@H](OC(=O)c5ccccc5)[C@@H](OC(=O)c5ccccc5)[C@@H]4OCc4ccccc4)[C@H](OC(=O)c4ccccc4)[C@@H](OC(=O)c4ccccc4)[C@@H]3OCc3ccccc3)[C@H](OC(=O)c3ccccc3)[C@@H](OC(=O)c3ccccc3)[C@@H]2OCc2ccccc2)O[C@H](CO)[C@H]1OCc1ccccc1` [8b (from 5b, -(CH2)5-)]: the ring closure, overall yield (29-membered ring, 1,2-dichloroethane, 2.0 h) amounted to 10%.
